According to paper PMC3728092, “Improvement of Pharmacokinetics Behavior of Apocynin by Nitrone Derivatization: Comparative Pharmacokinetics of Nitrone-Apocynin and its Parent Apocynin in Rats” (PLoS ONE, 2013):
Where “and” joins values, the source holds several entries; their conditions need not be identical. Identical values can stand only once. Like-named read-outs stand apart in the source and are kept apart here. One block for each molecule: values may come before it.

How the values were obtained:
[1] = Single-dose pharmacokinetic study (intravenous and intragastric) with HPLC-UV plasma assay, non-compartmental analysis; format: in vivo, Sprague-Dawley rats; details: rat; for half-life / bioavailability / Cmax / Tmax / MRT last / clearance: male, Sprague-Dawley, plasma; for bioavailability: oral, read-out: F (absolute oral bioavailability); for MRT last: read-out: MRT0–t (converted)
Description: (§1) Male Sprague-Dawley rats, weighing 210–290 g, were fasted for 12 h but with free access to water before dosing. The rats were randomly divided into groups of intravenous AN-1, intravenous apocynin, intragastric AN-1 and intragastric apocynin. […] Apocynin was dissolved in a mixture of propylene glycol-saline (4∶6, v/v). The single-dose pharmacokinetic study was performed. For AN-1, three different doses (20, 40 and 80 mg/kg) were administered for intravenous study (n = 6–8) and one dose (40 mg/kg) was given for intragastric study (n = 6). For apocynin, 50 mg/kg, an equimolar dose to 80 mg/kg (0.302 mmol/kg) of AN-1, was administered for both intravenous (n = 8) and intragastric studies (n = 6). A day before dosing, a cannula was introduced into jugular vein on rats for intravenous dosing and blood sampling in all groups.
Blood samples (0.4 mL) was collected via jugular vein into heparinized tubes at 0 min (before dosing) and 5, 10, 15, 30, 45, 60, 90, 120, 180, 240, 360, 480, 600, 720, 840 min for AN-1 and at 0 min (before dosing) and 2, 4, 6, 10, 15, 20, 30, 40, 50, 60 min for apocynin after intravenous and intragastric dosing. An equal volume of heparinized saline was used to flush the catheter immediately after each blood withdrawal to prevent blood clotting. The blood samples were centrifuged immediately at 10,000 rpm for 5 min at 4°C, and then the plasma was transferred and stored at −20°C until analysis.
The profiles of analyte concentrations in rat plasma versus time were analyzed to calculate pharmacokinetic parameters by a non-compartmental model using DAS software (version 3.0.1, Chinese Mathematical Pharmacology Society).

[2] = Stability of analytes in rat plasma under different storage conditions; format: in vitro ADME; details: for Accuracy, post-preparative stability: post-preparative QC samples; for Accuracy, post-preparative stability / Accuracy, short-term stability / Accuracy, freeze-thaw stability / Accuracy, long-term stability: n = 5; for time post-preparative solutions stable: room temperature; for Accuracy in stability test (summary) / Accuracy, short-term stability / Accuracy, freeze-thaw stability / Accuracy, long-term stability: rat plasma; for Accuracy in stability test (summary): long-term −20°C, short-term room temperature and three freeze-thaw cycles; for Accuracy, freeze-thaw stability: three freeze-thaw cycles; for Accuracy, long-term stability: −20°C for 30 days
Description: The stability of analytes in rat plasma stored under different conditions was assessed at low, medium and high QC concentrations, respectively. The conditions included long-term storage at −20°C for 30 days, short-term storage at room temperature (8 h for AN-1, 24 h for apocynin), three freeze-thaw cycles treatment, and post-preparative QC samples stored at room temperature (8 h for AN-1, 24 h for apocynin). The concentrations measured from the above samples were compared with the nominal values of QC plasma samples. Samples were concluded stable and applicable to routine analysis if the deviation of the observed concentration was less than ±15% from the nominal value.

[3] = Solubility in water (remark on dosing vehicle); format: physicochemical
Description: as §1

[4] = system: LPS-induced acute lung injury; parameters: method as in earlier work; details: rat model of LPS-induced acute lung injury; cited from earlier work
[5] = system: RAW 264.7 macrophage cells; parameters: method as in earlier work; details: RAW 264.7 cells, compared to parent apocynin, cited from earlier work
[6] = system: gp91^phox subunit of NADPH-oxidase; parameters: method as in earlier work; details: RAW 264.7 macrophage cells; cited from earlier work
[7] = intravenous and oral (intragastric), range over all intravenous and intragastric dose groups, read-out: terminal elimination half-life
[8] = po, intragastric, 50 mg/kg, n = 6
[9] = room temperature 24 h, 0.4 µg/mL
[10] = room temperature 24 h, 40 µg/mL
[11] = room temperature 24 h, 80 µg/mL
[12] = po, intragastric, 40 mg/kg, n = 6
[13] = room temperature 8 h, 0.2 µg/mL
[14] = room temperature 8 h, 250 µg/mL
[15] = room temperature 8 h, 400 µg/mL

half-life [1, 7]: 0.0983 to 0.102 h
bioavailability ([1]; intragastric 50 mg/kg vs intravenous 50 mg/kg): 2.8%
Cmax [1, 8]: 8 ± 2 µM
Tmax [1, 8]: 0.0883 h
MRT last [1, 8]: 0.135 h
half-life ([1]; po, intragastric, 50 mg/kg, n = 6, read-out: T1/2): 0.0983 ± 0.03 h
half-life ([1]; intravenous, 50 mg/kg (0.302 mmol/kg), n = 8, read-out: T1/2): 0.102 ± 0.015 h
clearance ([1]; intravenous, 50 mg/kg, n = 8): 120 ± 20 mL/min/kg
MRT last ([1]; intravenous, 50 mg/kg, n = 8): 0.117 h
AUC0–t ([1]; intragastric, 50 mg/kg, n = 6): 0.07 ± 0.01 mmol·min/L
CL ([1]; intragastric, 50 mg/kg, n = 6): 3670 ± 350 mL/min/kg
V ([1]; intragastric, 50 mg/kg, n = 6): 31.46 ± 12.14 L/kg
AUC0–t ([1]; intravenous, 50 mg/kg (0.302 mmol/kg), n = 8, 50 mg/kg): 2.49 ± 0.46 mmol·min/L
AUC0–t ([1]; intravenous, 50 mg/kg (0.302 mmol/kg), n = 8, listed as apocynin, 50 mg/kg): 2.49 mmol·min/L
V ([1]; intravenous, 50 mg/kg, n = 8): 1.09 ± 0.30 L/kg
Accuracy, post-preparative stability [2, 9]: 98.34±6.26%
Accuracy, post-preparative stability [2, 10]: 94.57±0.60%
Accuracy, post-preparative stability [2, 11]: 92.51±1.43%
time post-preparative solutions stable [2]: at least 8 h
Accuracy in stability test (summary) [2]: higher than 90%
Accuracy, short-term stability [2, 9]: 102.47±6.10%
Accuracy, short-term stability [2, 10]: 95.52±1.01%
Accuracy, short-term stability [2, 11]: 94.11±1.35%
Accuracy, freeze-thaw stability ([2]; 0.4 µg/mL): 102.87±1.62%
Accuracy, freeze-thaw stability ([2]; 40 µg/mL): 95.48±0.69%
Accuracy, freeze-thaw stability ([2]; 80 µg/mL): 93.60±1.79%
Accuracy, long-term stability ([2]; 0.4 µg/mL): 102.17±0.87%
Accuracy, long-term stability ([2]; 40 µg/mL): 95.18±0.34%
Accuracy, long-term stability ([2]; 80 µg/mL): 94.09±0.99%
SMILES: COc1cc(C(C)=O)ccc1O [Apocynin, 4-hydroxy-3-methoxyacetophenone]

SMILES: COc1cc(C(C)=O)cc(/C=[N+](\[O-])C(C)(C)C)c1O [AN-1, (Z)-N-(5-Acetyl-2-hydroxy-3-methoxybenzylidene)-2-methylpropan-2-amine oxide]
half-life [1, 7]: 2.71 to 3.35 h
bioavailability ([1]; intragastric 40 mg/kg vs intravenous 40 mg/kg): 78%
Cmax [1, 12]: 80 ± 20 µM
Tmax [1, 12]: 0.43 h
MRT last [1, 12]: 4.85 h
half-life ([1]; po, intragastric, 40 mg/kg, n = 6, read-out: T1/2): 3.35 ± 1.62 h
clearance ([1]; intravenous, 20 mg/kg, n = 8): 5 ± 1 mL/min/kg
MRT last ([1]; intravenous, 20 mg/kg, n = 8): 2.94 h
half-life ([1]; intravenous, 20 mg/kg, n = 8, read-out: T1/2): 2.86 ± 1.33 h
clearance ([1]; intravenous, 40 mg/kg, n = 6): 6 ± 1 mL/min/kg
MRT last ([1]; intravenous, 40 mg/kg, n = 6): 3.22 h
half-life ([1]; intravenous, 40 mg/kg, n = 6, read-out: T1/2): 2.71 ± 0.938 h
half-life ([1]; intravenous, 80 mg/kg (0.302 mmol/kg), n = 8, read-out: T1/2): 3 ± 0.748 h
clearance ([1]; intravenous, 80 mg/kg, n = 8): 5 ± 1 mL/min/kg
MRT last ([1]; intravenous, 80 mg/kg, n = 8): 3.42 h
exposure in the systemic circulation (AUC0–t) relative to apocynin ([1]; equimolar intravenous dose 0.302 mmol/kg): 25 fold
AUC0–t ([1]; intragastric, 40 mg/kg, n = 6): 20.68 ± 3.95 mmol·min/L
CL ([1]; intragastric, 40 mg/kg, n = 6): 7 ± 1 mL/min/kg
V ([1]; intragastric, 40 mg/kg, n = 6): 1.95 ± 0.90 L/kg
AUC0–t ([1]; intravenous, 20 mg/kg, n = 8): 14.88 ± 1.31 mmol·min/L
V ([1]; intravenous, 20 mg/kg, n = 8): 1.20 ± 0.54 L/kg
AUC0–t ([1]; intravenous, 40 mg/kg, n = 6): 26.51 ± 5.12 mmol·min/L
V ([1]; intravenous, 40 mg/kg, n = 6): 1.27 ± 0.32 L/kg
AUC0–t ([1]; intravenous, 80 mg/kg (0.302 mmol/kg), n = 8, 80 mg/kg): 61.89 mmol·min/L and 61.89 ± 7.59 mmol·min/L
V ([1]; intravenous, 80 mg/kg, n = 8): 1.20 ± 0.32 L/kg
Accuracy, post-preparative stability [2, 13]: 88.61±0.58%
Accuracy, post-preparative stability [2, 14]: 88.14±0.84%
Accuracy, post-preparative stability [2, 15]: 91.96±1.51%
time post-preparative solutions stable [2]: at least 8 h
Accuracy in stability test (summary) [2]: higher than 90%
Accuracy, short-term stability [2, 13]: 89.96±0.31%
Accuracy, short-term stability [2, 14]: 91.99±1.37%
Accuracy, short-term stability [2, 15]: 91.46±0.96%
Accuracy, freeze-thaw stability ([2]; 0.2 µg/mL): 94.79±0.46%
Accuracy, freeze-thaw stability ([2]; 250 µg/mL): 95.56±0.95%
Accuracy, freeze-thaw stability ([2]; 400 µg/mL): 96.33±0.98%
Accuracy, long-term stability ([2]; 0.2 µg/mL): 92.98±1.91%
Accuracy, long-term stability ([2]; 250 µg/mL): 94.74±2.43%
Accuracy, long-term stability ([2]; 400 µg/mL): 91.92±0.86%
solubility in water [3]: poor solubility in water
activity of superoxide dismutase in the lung of model rats [4]: significantly increased
treatment effect for the lung injury of model rats [4]: greater treatment effect than apocynin
protection against t-BHP inducing oxidative cytotoxicity [5]: protected
ROS production ([5]; t-BHP): attenuated the ROS production markedly
expression of gp91^phox induced by t-BHP [6]: depressing the high expression
